Reference: the NIST ThermoML archive (doi:10.1016/j.jct.2012.03.005)
± gives the expanded uncertainty stated by the source.

Test: activity coefficient (dimensionless); of the first substance listed, at infinite dilution; xn = mol fraction of the nth substance listed
Details: 328.15 K; 101 kPa; Liquid; Chromatography; x1 = 0

Row | SMILES | activity coefficient
1 | C#CCCCCC [1-heptyne] + CCn1cc[n+](C)c1.CS(=O)(=O)[O-] | 14.5 ± 1
2 | C=CCCCCC [1-heptene] + CCn1cc[n+](C)c1.CS(=O)(=O)[O-] | 122 ± 8
3 | CCC[N+](=O)[O-] [1-nitropropane] + CCn1cc[n+](C)c1.CS(=O)(=O)[O-] | 2.37 ± 0.16
4 | CCC(C)(C)OC [2-methoxy-2-methylbutane] + CCn1cc[n+](C)c1.CS(=O)(=O)[O-] | 35.8 ± 2.5
5 | c1ccncc1 [pyridine] + CCn1cc[n+](C)c1.CS(=O)(=O)[O-] | 1.59 ± 0.11

More lines, now with the values ahead:

Row | activity coefficient | SMILES
6 | 17.1 ± 1.2 | CCc1ccccc1 [ethylbenzene] + CCn1cc[n+](C)c1.CS(=O)(=O)[O-]
7 | 0.736 ± 0.049 | CCCO [propan-1-ol] + CCn1cc[n+](C)c1.CS(=O)(=O)[O-]
8 | 68.7 ± 4.7 | CC(C)OC(C)C [diisopropyl ether] + CCn1cc[n+](C)c1.CS(=O)(=O)[O-]
9 | 273 ± 19 | CCCCCCC [heptane] + CCn1cc[n+](C)c1.CS(=O)(=O)[O-]
10 | 67.5 ± 4.6 | CCCOCCC [dipropyl ether] + CCn1cc[n+](C)c1.CS(=O)(=O)[O-]

Same assay, conditions: 338.15 K; 101 kPa; Liquid; Chromatography; x1 = 0

Row | SMILES | activity coefficient
11 | Cc1ccccc1C [1,2-dimethylbenzene] + CCn1cc[n+](C)c1.CS(=O)(=O)[O-] | 14 ± 1
12 | CC(C)=O [acetone] + CCn1cc[n+](C)c1.CS(=O)(=O)[O-] | 338 ± 23
13 | Cc1cccc(C)c1 [1,3-dimethylbenzene] + CCn1cc[n+](C)c1.CS(=O)(=O)[O-] | 18.1 ± 1.2
14 | C=CCCCCCCCC [1-decene] + CCn1cc[n+](C)c1.CS(=O)(=O)[O-] | 479 ± 33
15 | COC(C)(C)C [2-methoxy-2-methylpropane] + CCn1cc[n+](C)c1.CS(=O)(=O)[O-] | 20.7 ± 1.4
16 | Cc1ccc(C)cc1 [1,4-dimethylbenzene] + CCn1cc[n+](C)c1.CS(=O)(=O)[O-] | 18.8 ± 1.3
17 | C#CCCCCCC [1-octyne] + CCn1cc[n+](C)c1.CS(=O)(=O)[O-] | 25.3 ± 1.7
18 | C#CCCCC [1-hexyne] + CCn1cc[n+](C)c1.CS(=O)(=O)[O-] | 8.29 ± 0.57
19 | CCOC(C)(C)C [2-ethoxy-2-methylpropane] + CCn1cc[n+](C)c1.CS(=O)(=O)[O-] | 53.5 ± 3.7
20 | CC#N [acetonitrile] + CCn1cc[n+](C)c1.CS(=O)(=O)[O-] | 0.86 ± 0.06
21 | C=C(C)c1ccccc1 [(1-methylethenyl)benzene] + CCn1cc[n+](C)c1.CS(=O)(=O)[O-] | 11.2 ± 0.8
22 | Cc1ccccc1 [toluene] + CCn1cc[n+](C)c1.CS(=O)(=O)[O-] | 8.77 ± 0.6
23 | C1COCCO1 [1,4-dioxane] + CCn1cc[n+](C)c1.CS(=O)(=O)[O-] | 2.69 ± 0.18
24 | CCOCC [diethyl ether] + CCn1cc[n+](C)c1.CS(=O)(=O)[O-] | 16.8 ± 1.1
25 | C#CCCCCC [1-heptyne] + CCn1cc[n+](C)c1.CS(=O)(=O)[O-] | 14.6 ± 1
26 | C=CCCCCC [1-heptene] + CCn1cc[n+](C)c1.CS(=O)(=O)[O-] | 112 ± 8
27 | CCC[N+](=O)[O-] [1-nitropropane] + CCn1cc[n+](C)c1.CS(=O)(=O)[O-] | 2.38 ± 0.16
28 | CCC(C)(C)OC [2-methoxy-2-methylbutane] + CCn1cc[n+](C)c1.CS(=O)(=O)[O-] | 34 ± 2.3
29 | c1ccncc1 [pyridine] + CCn1cc[n+](C)c1.CS(=O)(=O)[O-] | 1.6 ± 0.1

Results, then the molecule that gave them:

Row | activity coefficient | SMILES
30 | 0.474 ± 0.037 | CCO [ethanol] + CCn1cc[n+](C)c1.CS(=O)(=O)[O-]
31 | 63.9 ± 4.4 | C=CCCCC [hex-1-ene] + CCn1cc[n+](C)c1.CS(=O)(=O)[O-]
32 | 0.229 ± 0.029 | CO [methanol] + CCn1cc[n+](C)c1.CS(=O)(=O)[O-]
33 | 2 ± 0.14 | c1ccsc1 [thiophene] + CCn1cc[n+](C)c1.CS(=O)(=O)[O-]
34 | 7.75 ± 0.53 | CCC(=O)CC [pentan-3-one] + CCn1cc[n+](C)c1.CS(=O)(=O)[O-]
35 | 5.79 ± 0.39 | C=Cc1ccccc1 [styrene] + CCn1cc[n+](C)c1.CS(=O)(=O)[O-]
36 | 114 ± 8 | C1CCCCCCC1 [cyclooctane] + CCn1cc[n+](C)c1.CS(=O)(=O)[O-]
37 | 79.9 ± 5.5 | C1CCCCCC1 [cycloheptane] + CCn1cc[n+](C)c1.CS(=O)(=O)[O-]
38 | 187 ± 13 | C=CCCCCCC [oct-1-ene] + CCn1cc[n+](C)c1.CS(=O)(=O)[O-]
39 | 388 ± 27 | CCCCCCCC [octane] + CCn1cc[n+](C)c1.CS(=O)(=O)[O-]
40 | 338 ± 23 | c1ccccc1 [benzene] + CCn1cc[n+](C)c1.CS(=O)(=O)[O-]
41 | 607 ± 42 | CCCCCCCCC [nonane] + CCn1cc[n+](C)c1.CS(=O)(=O)[O-]
42 | 36.1 ± 2.5 | C1CCCC1 [cyclopentane] + CCn1cc[n+](C)c1.CS(=O)(=O)[O-]
43 | 7.39 ± 0.5 | CCCC(C)=O [pentan-2-one] + CCn1cc[n+](C)c1.CS(=O)(=O)[O-]
44 | 16.5 ± 1.1 | CCc1ccccc1 [ethylbenzene] + CCn1cc[n+](C)c1.CS(=O)(=O)[O-]
45 | 0.724 ± 0.048 | CCCO [propan-1-ol] + CCn1cc[n+](C)c1.CS(=O)(=O)[O-]
46 | 64.8 ± 4.4 | CC(C)OC(C)C [diisopropyl ether] + CCn1cc[n+](C)c1.CS(=O)(=O)[O-]
47 | 244 ± 17 | CCCCCCC [heptane] + CCn1cc[n+](C)c1.CS(=O)(=O)[O-]
48 | 62.8 ± 4.3 | CCCOCCC [dipropyl ether] + CCn1cc[n+](C)c1.CS(=O)(=O)[O-]

Same assay, conditions: 348.15 K; 101 kPa; Liquid; Chromatography; x1 = 0

Row | SMILES | activity coefficient
49 | Cc1ccccc1C [1,2-dimethylbenzene] + CCn1cc[n+](C)c1.CS(=O)(=O)[O-] | 13.8 ± 0.9
50 | CC(C)=O [acetone] + CCn1cc[n+](C)c1.CS(=O)(=O)[O-] | 348 ± 24
51 | Cc1cccc(C)c1 [1,3-dimethylbenzene] + CCn1cc[n+](C)c1.CS(=O)(=O)[O-] | 17.6 ± 1.2
52 | C=CCCCCCCCC [1-decene] + CCn1cc[n+](C)c1.CS(=O)(=O)[O-] | 434 ± 30
53 | COC(C)(C)C [2-methoxy-2-methylpropane] + CCn1cc[n+](C)c1.CS(=O)(=O)[O-] | 20 ± 1.4
54 | Cc1ccc(C)cc1 [1,4-dimethylbenzene] + CCn1cc[n+](C)c1.CS(=O)(=O)[O-] | 18.8 ± 1.3
55 | C#CCCCCCC [1-octyne] + CCn1cc[n+](C)c1.CS(=O)(=O)[O-] | 25.1 ± 1.7
56 | C#CCCCC [1-hexyne] + CCn1cc[n+](C)c1.CS(=O)(=O)[O-] | 8.27 ± 0.56
57 | CCOC(C)(C)C [2-ethoxy-2-methylpropane] + CCn1cc[n+](C)c1.CS(=O)(=O)[O-] | 50 ± 3.4
58 | CC#N [acetonitrile] + CCn1cc[n+](C)c1.CS(=O)(=O)[O-] | 0.877 ± 0.056
59 | C=C(C)c1ccccc1 [(1-methylethenyl)benzene] + CCn1cc[n+](C)c1.CS(=O)(=O)[O-] | 11.3 ± 0.8
60 | Cc1ccccc1 [toluene] + CCn1cc[n+](C)c1.CS(=O)(=O)[O-] | 8.65 ± 0.59
61 | C1COCCO1 [1,4-dioxane] + CCn1cc[n+](C)c1.CS(=O)(=O)[O-] | 2.72 ± 0.19
62 | CCOCC [diethyl ether] + CCn1cc[n+](C)c1.CS(=O)(=O)[O-] | 16.1 ± 1.1
63 | C#CCCCCC [1-heptyne] + CCn1cc[n+](C)c1.CS(=O)(=O)[O-] | 14.6 ± 1
64 | C=CCCCCC [1-heptene] + CCn1cc[n+](C)c1.CS(=O)(=O)[O-] | 102 ± 7
65 | CCC[N+](=O)[O-] [1-nitropropane] + CCn1cc[n+](C)c1.CS(=O)(=O)[O-] | 2.39 ± 0.16
66 | CCC(C)(C)OC [2-methoxy-2-methylbutane] + CCn1cc[n+](C)c1.CS(=O)(=O)[O-] | 32.6 ± 2.2
67 | c1ccncc1 [pyridine] + CCn1cc[n+](C)c1.CS(=O)(=O)[O-] | 1.62 ± 0.11

The next lines start with the values.

Row | activity coefficient | SMILES
68 | 0.47 ± 0.04 | CCO [ethanol] + CCn1cc[n+](C)c1.CS(=O)(=O)[O-]
69 | 0.232 ± 0.029 | CO [methanol] + CCn1cc[n+](C)c1.CS(=O)(=O)[O-]
70 | 2.05 ± 0.14 | c1ccsc1 [thiophene] + CCn1cc[n+](C)c1.CS(=O)(=O)[O-]
71 | 7.63 ± 0.52 | CCC(=O)CC [pentan-3-one] + CCn1cc[n+](C)c1.CS(=O)(=O)[O-]
72 | 5.82 ± 0.4 | C=Cc1ccccc1 [styrene] + CCn1cc[n+](C)c1.CS(=O)(=O)[O-]
73 | 101 ± 7 | C1CCCCCCC1 [cyclooctane] + CCn1cc[n+](C)c1.CS(=O)(=O)[O-]
74 | 72.6 ± 5 | C1CCCCCC1 [cycloheptane] + CCn1cc[n+](C)c1.CS(=O)(=O)[O-]
75 | 170 ± 12 | C=CCCCCCC [oct-1-ene] + CCn1cc[n+](C)c1.CS(=O)(=O)[O-]
76 | 350 ± 24 | CCCCCCCC [octane] + CCn1cc[n+](C)c1.CS(=O)(=O)[O-]
77 | 348 ± 24 | c1ccccc1 [benzene] + CCn1cc[n+](C)c1.CS(=O)(=O)[O-]
78 | 547 ± 38 | CCCCCCCCC [nonane] + CCn1cc[n+](C)c1.CS(=O)(=O)[O-]
79 | 33 ± 2.3 | C1CCCC1 [cyclopentane] + CCn1cc[n+](C)c1.CS(=O)(=O)[O-]
80 | 7.26 ± 0.5 | CCCC(C)=O [pentan-2-one] + CCn1cc[n+](C)c1.CS(=O)(=O)[O-]
81 | 16.1 ± 1.1 | CCc1ccccc1 [ethylbenzene] + CCn1cc[n+](C)c1.CS(=O)(=O)[O-]
82 | 0.716 ± 0.048 | CCCO [propan-1-ol] + CCn1cc[n+](C)c1.CS(=O)(=O)[O-]
83 | 60.6 ± 4.2 | CC(C)OC(C)C [diisopropyl ether] + CCn1cc[n+](C)c1.CS(=O)(=O)[O-]
84 | 58.1 ± 4 | CCCOCCC [dipropyl ether] + CCn1cc[n+](C)c1.CS(=O)(=O)[O-]

Same assay, conditions: 358.15 K; 101 kPa; Liquid; Chromatography; x1 = 0

Row | SMILES | activity coefficient
85 | Cc1ccccc1C [1,2-dimethylbenzene] + CCn1cc[n+](C)c1.CS(=O)(=O)[O-] | 13.5 ± 0.9
86 | CC(C)=O [acetone] + CCn1cc[n+](C)c1.CS(=O)(=O)[O-] | 358 ± 25
87 | Cc1cccc(C)c1 [1,3-dimethylbenzene] + CCn1cc[n+](C)c1.CS(=O)(=O)[O-] | 17.1 ± 1.2
88 | Cc1ccc(C)cc1 [1,4-dimethylbenzene] + CCn1cc[n+](C)c1.CS(=O)(=O)[O-] | 18.9 ± 1.3
89 | CC#N [acetonitrile] + CCn1cc[n+](C)c1.CS(=O)(=O)[O-] | 0.892 ± 0.057
90 | C=C(C)c1ccccc1 [(1-methylethenyl)benzene] + CCn1cc[n+](C)c1.CS(=O)(=O)[O-] | 11.5 ± 0.8
91 | Cc1ccccc1 [toluene] + CCn1cc[n+](C)c1.CS(=O)(=O)[O-] | 8.53 ± 0.58
92 | C1COCCO1 [1,4-dioxane] + CCn1cc[n+](C)c1.CS(=O)(=O)[O-] | 2.73 ± 0.19
93 | CCC[N+](=O)[O-] [1-nitropropane] + CCn1cc[n+](C)c1.CS(=O)(=O)[O-] | 2.39 ± 0.16
94 | c1ccncc1 [pyridine] + CCn1cc[n+](C)c1.CS(=O)(=O)[O-] | 1.64 ± 0.11

Further lines, results first:

Row | activity coefficient | SMILES
95 | 0.467 ± 0.036 | CCO [ethanol] + CCn1cc[n+](C)c1.CS(=O)(=O)[O-]
96 | 0.234 ± 0.029 | CO [methanol] + CCn1cc[n+](C)c1.CS(=O)(=O)[O-]
97 | 2.09 ± 0.14 | c1ccsc1 [thiophene] + CCn1cc[n+](C)c1.CS(=O)(=O)[O-]
98 | 7.53 ± 0.51 | CCC(=O)CC [pentan-3-one] + CCn1cc[n+](C)c1.CS(=O)(=O)[O-]
99 | 5.85 ± 0.4 | C=Cc1ccccc1 [styrene] + CCn1cc[n+](C)c1.CS(=O)(=O)[O-]
100 | 358 ± 25 | c1ccccc1 [benzene] + CCn1cc[n+](C)c1.CS(=O)(=O)[O-]
101 | 507 ± 35 | CCCCCCCCC [nonane] + CCn1cc[n+](C)c1.CS(=O)(=O)[O-]
102 | 7.14 ± 0.49 | CCCC(C)=O [pentan-2-one] + CCn1cc[n+](C)c1.CS(=O)(=O)[O-]
103 | 15.6 ± 1.1 | CCc1ccccc1 [ethylbenzene] + CCn1cc[n+](C)c1.CS(=O)(=O)[O-]
104 | 0.708 ± 0.047 | CCCO [propan-1-ol] + CCn1cc[n+](C)c1.CS(=O)(=O)[O-]
